According to paper PMC10979160 (Heliyon, 2024):
Values after ≈ are worked out from the molar mass of the structure shown. Counter-ions that a name gives are not always drawn. Like-named read-outs stand apart in the source and are kept apart here. Where a SMILES comes first, the peptide text is derived from it. [ ]: non-standard residue; d: D form.

Columns and labels:
E. coli ATCC 25922 [1] = test: Checkerboard dilution assay for synergy between CAMPs and antibiotics; assay type: cell-based
E. coli ATCC 25922 [2] = test: MIC test for dividing and non-dividing bacterial cultures; assay type: cell-based; conditions: Escherichia coli, ATCC25922, 1 h
[3] = peptide + ampicillin, 5 × 10^3 CFU/mL
[4] = peptide + ampicillin, 5 × 10^5 CFU/mL
[5] = peptide + gentamicin, 5 × 10^3 CFU/mL
[6] = peptide + gentamicin, 5 × 10^5 CFU/mL
[7] = peptide + levofloxacin, 5 × 10^3 CFU/mL
[8] = peptide + levofloxacin, 5 × 10^5 CFU/mL
[9] = read-out: MIC, dividing cells (LB)
[10] = read-out: MIC, non-dividing cells (PBS)

MIC (E. coli ATCC 25922 [2]; [9])	MIC (E. coli ATCC 25922 [2]; [10])	Compound	FICI (E. coli ATCC 25922 [1]; [3])	FICI (E. coli ATCC 25922 [1]; [4])	FICI (E. coli ATCC 25922 [1]; [5])	FICI (E. coli ATCC 25922 [1]; [6])	FICI (E. coli ATCC 25922 [1]; [7])	FICI (E. coli ATCC 25922 [1]; [8])
		CC[C@@H](C)[C@@H](NC(=O)[C@@H](Cc1c[nH]c2ccccc12)NC(=O)[C@H](N)CCCNC(=N)N)C(=O)N[C@H](CCCNC(=N)N)C(=O)N[C@H](Cc1c[nH]c2ccccc12)C(=O)N[C@@H](C(=O)N[C@H](Cc1c[nH]c2ccccc12)C(=O)N[C@H](CCCNC(=N)N)C(=O)N[C@H](CCCCN)C(=O)N[C@H](CCCCN)C(=O)N[C@H](CC(C)C)C(=O)N[C@H](CCCNC(=N)N)C(N)=O)C(C)C [24D] (H-[dR][dW][dI][dR][dW][dV][dW][dR][dK][dK][dL][dR]-NH2)	1.016	0.625	1.015	1	1	1.031
		CC[C@H](C)[C@H](NC(=O)[C@H](Cc1c[nH]c2ccccc12)NC(=O)[C@@H](N)CCCNC(=N)N)C(=O)N[C@@H](CCCNC(=N)N)C(=O)N[C@@H](Cc1c[nH]c2ccccc12)C(=O)N[C@H](C(=O)N[C@@H](Cc1c[nH]c2ccccc12)C(=O)N[C@@H](CCCNC(=N)N)C(=O)N[C@@H](CCCCN)C(=O)N[C@@H](CCCCN)C(=O)N[C@@H](CC(C)C)C(=O)N[C@@H](CCCNC(=N)N)C(N)=O)C(C)C [24L] (H-RWIRWVWRKKLR-NH2)	0.625	0.5	1	0.5	0.75	0.5
> 100 µg/mL	> 100 µg/mL	CC1(C)S[C@@H]2[C@H](NC(=O)[C@H](N)c3ccccc3)C(=O)N2[C@H]1C(=O)O [Ampicillin, ampicillin sodium salt]						
50 µg/mL (≈ 105 µM)	25 µg/mL (≈ 52.3 µM)	CNC(C)C1CCC(N)C(OC2C(N)CC(N)C(OC3OCC(C)(O)C(NC)C3O)C2O)O1 (stereo not shown) [Gentamicin, gentamicin]						
		CC[C@H](C)[C@H](NC(=O)[C@H](C)N)C(=O)N[C@@H](CCCCN)C(=O)N[C@H](C(=O)N[C@@H](CCCNC(=N)N)C(=O)N[C@@H](CCCCN)C(=O)N[C@@H](CC(C)C)C(=O)N[C@@H](Cc1ccccc1)C(=O)N[C@@H](CCCCN)C(=O)N[C@@H](CCCCN)C(=O)N[C@@H](CC(C)C)C(=O)N[C@@H](CC(C)C)C(=O)N[C@@H](CCCNC(=N)N)C(N)=O)[C@@H](C)CC [L1L] (H-AIKIRKLFKKLLR-NH2)	0.563	0.5	0.75	0.5	0.625	0.5
		CC[C@H](C)[C@H](NC(=O)CN)C(=O)N[C@@H](CCCCN)C(=O)N[C@H](C(=O)N[C@@H](CCCNC(=N)N)C(=O)N[C@@H](CCCCN)C(=O)N[C@@H](CC(C)C)C(=O)N[C@@H](Cc1ccccc1)C(=O)N[C@@H](CCCCN)C(=O)N[C@@H](CCCCN)C(=O)N[C@@H](CC(C)C)C(=O)N[C@@H](CC(C)C)C(=O)N[C@@H](CCCNC(=N)N)C(N)=O)[C@@H](C)CC [LCAPL2] (H-GIKIRKLFKKLLR-NH2)	0.5	0.75	0.625	0.375	0.531	0.625
		CC[C@H](C)[C@H](NC(=O)[C@H](CCCNC(=N)N)NC(=O)[C@H](CCCCN)NC(=O)[C@H](CC(C)C)NC(=O)[C@H](Cc1ccccc1)NC(=O)[C@H](CCCNC(=N)N)NC(=O)[C@H](C)NC(=O)[C@@H](N)C(C)C)C(=O)N[C@H](C(=O)N[C@@H](CCCCN)C(=O)N[C@@H](C)C(=O)N[C@@H](CC(C)C)C(=O)N[C@@H](Cc1ccccc1)C(N)=O)[C@@H](C)CC [LCAPL8] (H-VARFLKRIIKALF-NH2)	1.016	1.031	1.031	0.531	1.25	0.625
		CC[C@H](C)[C@H](NC(=O)[C@H](Cc1ccccc1)NC(=O)CN)C(=O)N[C@@H](CCCCN)C(=O)N[C@H](C(=O)N[C@H](C(=O)N[C@@H](CCCNC(=N)N)C(=O)N[C@@H](CCCCN)C(=O)N[C@@H](CC(C)C)C(=O)N[C@@H](CC(C)C)C(=O)N[C@@H](CCCNC(=N)N)C(=O)N[C@@H](CC(C)C)C(=O)N[C@@H](Cc1ccccc1)C(N)=O)C(C)C)[C@@H](C)CC [LCAPL9] (H-GFIKIVRKLLRLF-NH2)	1.016	0.625	1	1.031	2	1.25
		CC[C@H](C)[C@H](N)C(=O)N[C@H](C(=O)N[C@@H](CCCCN)C(=O)N[C@@H](CCCNC(=N)N)C(=O)N[C@H](C(=O)N[C@@H](CC(C)C)C(=O)N[C@H](C(=O)N[C@@H](CCC(N)=O)C(=O)N[C@@H](CC(C)C)C(=O)N[C@@H](CCCCN)C(=O)N[C@@H](CCCCN)C(=O)N[C@@H](CC(C)C)C(=O)N[C@@H](CC(C)C)C(N)=O)[C@@H](C)CC)[C@@H](C)CC)[C@@H](C)CC [LCAPL10] (H-IIKRILIQLKKLL-NH2)	1.016	0.75	1.125	0.5	1.031	0.531
		CC(C)C[C@H](NC(=O)[C@H](Cc1ccccc1)NC(=O)[C@H](CCCCN)NC(=O)[C@@H](N)CCCCN)C(=O)NCC(=O)N[C@@H](CCCCN)C(=O)N[C@@H](Cc1c[nH]c2ccccc12)C(=O)N[C@@H](CCCCN)C(=O)N[C@@H](CC(C)C)C(=O)N[C@@H](CCCNC(=N)N)C(=O)N[C@@H](Cc1ccccc1)C(=O)NCC(=O)N[C@@H](Cc1c[nH]c2ccccc12)C(N)=O [LCAPL15] (H-KKFLGKWKLRFGW-NH2)	0.75	0.563	1.031	0.75	0.75	0.563
		CC(C)C[C@@H](N)C(=O)N[C@@H](C(=O)N[C@H](Cc1c[nH]c2ccccc12)C(=O)N[C@H](CCCCN)C(=O)N[C@H](CC(C)C)C(=O)N[C@H](Cc1c[nH]c2ccccc12)C(=O)N[C@H](Cc1c[nH]c2ccccc12)C(=O)N[C@H](CCCNC(=N)N)C(=O)N[C@H](CC(C)C)C(=O)N[C@H](CCCNC(=N)N)C(=O)N[C@H](Cc1c[nH]c2ccccc12)C(=O)N[C@H](CC(C)C)C(=O)N[C@H](CCCCN)C(N)=O)C(C)C [ST1D] (H-[dL][dV][dW][dK][dL][dW][dW][dR][dL][dR][dW][dL][dK]-NH2)	0.625	0.625	0.516	0.625	1	1.031
		CC(C)C[C@H](NC(=O)[C@H](Cc1c[nH]c2ccccc12)NC(=O)[C@H](CCCNC(=N)N)NC(=O)[C@H](CC(C)C)NC(=O)[C@H](CCCNC(=N)N)NC(=O)[C@H](Cc1c[nH]c2ccccc12)NC(=O)[C@H](Cc1c[nH]c2ccccc12)NC(=O)[C@H](CC(C)C)NC(=O)[C@H](CCCCN)NC(=O)[C@H](Cc1c[nH]c2ccccc12)NC(=O)[C@@H](NC(=O)[C@@H](N)CC(C)C)C(C)C)C(=O)N[C@@H](CCCCN)C(N)=O [ST1L] (H-LVWKLWWRLRWLK-NH2)	0.375	0.625	1	0.516	0.625	0.75
